Measured values taken from US20070259879A1, “Piperazine and piperidine biaryl derivatives” (priority 2006, published 2007).

system: HIV-1 pseudotyped virus; experiment: HIV-1 pseudotyped virus assay (luciferase reporter gene, single cycle of infection); assay type: cell-based; settings: Human immunodeficiency virus 1, CCR5, 72 h, read-out: Activity (antiviral activity, IC50)
Description: In this example are illustrated experimental procedures for determining biological activity, such as antiviral activity. For determining biological activity, an HIV-1 infection assay was used to determine the antiviral potency for compounds of the present invention.
For determining biological activity, an HIV-1 pseudotyped virus assay was used to determine the respective antiviral potencies of each compound tested in the assay for comparison. The pseudotyped assay scores for a reduction in infection as indicated by decreased signal from the reporter gene encoding a luciferase enzyme (“reporter gene”). The assay employs cell lines expressing CD4 and either of the primary chemokine receptors (CCR5 or CXCR4) that HIV uses as a co-receptor (“target cells”). Pseudotyped virus was prepared by co-transfection of 293T cells with: 1) a plasmid construct carrying the HIV-1 envelope of choice, in combination with 2) a pseudotyped virus backbone construct in which (a) envelope expression has been abrogated due to a frameshift in the envelope sequence, and (b) the reporter gene replaces nef. Expression of HIV-1 envelope on 293T packaging cells results in the production of a pseudotyped virus carrying the reporter gene that is capable of a single cycle of infection.
The compounds of the present invention being tested for antiviral activity were serially diluted and dose responses determined in duplicate in two separate experiments. The compounds to be tested were added directly to the plated, target cells, followed by the addition of pseudotyped virus described above. The cells were cultured for three days prior harvest. Media and compound were removed, the cell monolayer was washed, lysed by detergent, and then frozen at −80 degrees C. for a minimum of 30 minutes. Following thawing and acclimation to room temperature, luciferase production was quatified by injecting 100 […]I of a substrate (of the enzyme encoded by the reporter gene) into each well followed by detecting the signal (light emitted from the interaction between the enzyme and substrate) after 5 seconds. In the pseudotyped assay, a 50% reduction in signal is significant, and provides the primary cutoff value for assessing antiviral activity (“IC50” is defined as the dilution resulting in a 50% reduction in enzymatic activity as interpolated from a titration curve). Representative compounds according to the present invention, and their antiviral activity, are illustrated in Table 3.

**Q.** How did the IC50 turn out when CC1CN(C(=O)c2ccccc2)CCN1C(=O)C(=O)c1ccc(-n2cncn2)cc1 (stereo not shown) [Example 170, 1-(4-Benzoyl-2-methyl-piperazin-1-yl)-2-(4-[1,2,4]triazol-1-yl-phenyl)-ethane-1,2-dione] was run?
**A.** < 5 µM

**Q.** With CC1CN(C(=O)c2ccccc2)CCN1C(=O)C(=O)c1ccc(-c2ccco2)cc1 (stereo not shown) [Example 171, 1-(4-Benzoyl-2-methyl-piperazin-1-yl)-2-(4-furan-2-yl-phenyl)-ethane-1,2-dione] as the compound, how does the IC50 read?
**A.** < 5 µM

**Q.** For CC1CN(C(=O)c2ccccc2)CCN1C(=O)C(=O)c1ccc(-c2ccn(C)n2)cc1 (stereo not shown) [Example 172, 1-(4-Benzoyl-2-methyl-piperazin-1-yl)-2-[4-(1-methyl-1H-pyrazol-3-yl)-phenyl]-ethane-1,2-dione], which IC50 is on record?
**A.** < 5 µM

**Q.** With Cc1ccc(-c2ccc(C(=O)C(=O)N3CCN(C(=O)c4ccccc4)CC3C)cc2)o1 (stereo not shown) [Example 173, 1-(4-Benzoyl-2-methyl-piperazin-1-yl)-2-[4-(5-methyl-furan-2-yl)-phenyl]-ethane-1,2-dione] as the compound, how does the IC50 read?
**A.** < 5 µM

**Q.** How did the IC50 turn out when CC1CN(C(=O)c2ccccc2)CCN1C(=O)C(=O)c1ccc(-n2nccn2)cc1 (stereo not shown) [Example 174, 1-(4-Benzoyl-2-methyl-piperazin-1-yl)-2-(4-[1,2,3]triazol-2-yl-phenyl)-ethane-1,2-dione] was run?
**A.** < 5 µM

**Q.** For COc1cc(C(=O)C(=O)N2CCN(C(=O)c3ccccc3)C[C@H]2C)ccc1-c1cnco1 [Example 175], which IC50 is on record?
**A.** < 5 µM

**Q.** C[C@@H]1CN(C(=O)c2ccccc2)CCN1C(=O)C(=O)c1ccc(-c2cncs2)cc1 [Example 176] was tested. Which IC50 did it give?
**A.** < 5 µM

**Q.** Which IC50 does the source give for C[C@@H]1CN(C(=O)c2ccccc2)CCN1C(=O)C(=O)c1ccc(-c2cscn2)cc1 [Example 177] here?
**A.** < 5 µM

**Q.** How did the IC50 turn out when C[C@@H]1CN(C(=O)c2ccccc2)CCN1C(=O)C(=O)c1ccc(-c2cscn2)s1 [Example 178] was run?
**A.** < 5 µM

**Q.** C[C@@H]1CN(C(=O)c2ccccc2)CCN1C(=O)C(=O)c1ccc(-c2cncs2)s1 [Example 179] was tested. Which IC50 did it give?
**A.** < 5 µM

**Q.** COc1cc(-c2cc(C)no2)ccc1C(=O)C(=O)N1CCN(C(=O)c2ccccc2)C[C@H]1C [Example 180] was tested. Which IC50 did it give?
**A.** < 5 µM

**Q.** For Cc1cc(-c2cc[nH]n2)ccc1C(=O)C(=O)N1CCN(C(=O)c2ccccc2)C[C@H]1C [Example 181, 1-((R)-4-Benzoyl-2-methyl-piperazin-1-yl)-2-[2-methyl-4-(1H-pyrazol-3-yl)-phenyl]-ethane-1,2-dione], which IC50 is on record?
**A.** < 5 µM

**Q.** Cc1ncc(-c2ccc(C(=O)C(=O)N3CCN(C(=O)c4ccccc4)C[C@H]3C)s2)s1 [Example 182] was tested. Which IC50 did it give?
**A.** > 5 µM

**Q.** C[C@@H]1CN(C(=O)c2ccccc2)CCN1C(=O)C(=O)c1ccc(-c2cc[nH]n2)cc1F [Example 183] was tested. Which IC50 did it give?
**A.** < 5 µM

**Q.** With Cc1cc(C(=O)C(=O)N2CCN(C(=O)c3ccccc3)C[C@H]2C)ccc1-c1cc[nH]n1 [Example 184, 1-((R)-4-Benzoyl-2-methyl-piperazin-1-yl)-2-[3-methyl-4-(1H-pyrazol-3-yl)-phenyl]-ethane-1,2-dione] as the compound, how does the IC50 read?
**A.** < 5 µM

**Q.** COc1cc(C(=O)C(=O)N2CCN(C(=O)c3ccccc3)C[C@H]2C)ccc1-c1cc(C)no1 [Example 185] was tested. Which IC50 did it give?
**A.** < 5 µM

**Q.** With C[C@@H]1CN(C(=O)c2ccccc2)CCN1C(=O)C(=O)c1ccc(-c2ccn[nH]2)nc1 [Example 186, 1-((R)-4-Benzoyl-2-methyl-piperazin-1-yl)-2-[6-(1H-pyrazol-3-yl)-pyridin-3-yl]-ethane-1,2-dione] as the compound, how does the IC50 read?
**A.** < 5 µM

**Q.** For C[C@@H]1CN(C(=O)c2ccccc2)CCN1C(=O)C(=O)c1ccc(-c2nccn2C)cc1 [Example 187], which IC50 is on record?
**A.** > 5 µM

**Q.** For C[C@@H]1CN(C(=O)c2ccccc2)CCN1C(=O)C(=O)c1ccc(-c2nccn2C)s1 [Example 188], which IC50 is on record?
**A.** > 5 µM

**Q.** With C[C@@H]1CN(C(=O)c2ccccc2)CCN1C(=O)C(=O)c1ccc(-c2cnco2)c(Cl)c1 [Example 189] as the compound, how does the IC50 read?
**A.** < 5 µM

**Q.** For COc1cc(-c2cc[nH]n2)ccc1C(=O)C(=O)N1CCN(C(=O)c2ccccc2)C[C@H]1C [Example 190], which IC50 is on record?
**A.** < 5 µM

**Q.** COc1cc(C(=O)C(=O)N2CCN(C(=O)c3ccccc3)C[C@H]2C)ccc1-c1cc[nH]n1 [Example 191] was tested. Which IC50 did it give?
**A.** < 5 µM

**Q.** C[C@@H]1CN(C(=O)c2ccccc2)CCN1C(=O)C(=O)c1ccc(-c2cc[nH]n2)cc1Cl [Example 192] was tested. Which IC50 did it give?
**A.** < 5 µM

**Q.** Which IC50 does the source give for C[C@@H]1CN(C(=O)c2ccccc2)CCN1C(=O)C(=O)c1ccc(-n2cccn2)cc1 [Example 193, 1-((R)-4-Benzoyl-2-methyl-piperazin-1-yl)-2-(4-pyrazol-1-yl-phenyl)-ethane-1,2-dione] here?
**A.** < 5 µM

**Q.** Which IC50 does the source give for Cc1noc(C)c1-c1ccc(C(=O)C(=O)N2CCN(C(=O)c3ccccc3)C[C@H]2C)cn1 [Example 194] here?
**A.** > 5 µM

**Q.** Cc1cc(-n2cccn2)ccc1C(=O)C(=O)N1CCN(C(=O)c2ccccc2)C[C@H]1C [Example 195, 1-((R)-4-Benzoyl-2-methyl-piperazin-1-yl)-2-(2-methyl-4-pyrazol-1-yl-phenyl)-ethane-1,2-dione] was tested. Which IC50 did it give?
**A.** > 5 µM

**Q.** For C[C@@H]1CN(C(=O)c2ccccc2)CCN1C(=O)C(=O)c1c[nH]c(-c2cccnc2)c1 [Example 196], which IC50 is on record?
**A.** > 5 µM

**Q.** For CC1CN(C(=O)c2ccccc2)CCN1C(=O)C(=O)c1ccc(-c2cnn(C)c2)cc1 (stereo not shown) [Example 197], which IC50 is on record?
**A.** < 5 µM

**Q.** How did the IC50 turn out when CC(=O)c1ccc(-c2ccc(C(=O)C(=O)N3CCN(C(=O)c4ccccc4)C[C@H]3C)cc2)s1 [Example 198] was run?
**A.** < 5 µM

**Q.** Which IC50 does the source give for C[C@@H]1CN(C(=O)c2ccccc2)CCN1C(=O)C(=O)c1ccc(-c2cccnc2)cc1 [Example 199] here?
**A.** < 5 µM

**Q.** With CC1CN(C(=O)c2ccccc2)CCN1C(=O)C(=O)c1ccc(-c2ncccc2F)cc1 (stereo not shown) [Example 200] as the compound, how does the IC50 read?
**A.** < 5 µM

**Q.** C[C@@H]1CN(C(=O)c2ccccc2)CCN1C(=O)C(=O)c1ccc(-c2ccc(C(F)(F)F)cn2)cc1 [Example 201] was tested. Which IC50 did it give?
**A.** < 5 µM

**Q.** How did the IC50 turn out when COc1cc(-c2ccc(C(=O)C(=O)N3CCN(C(=O)c4ccccc4)C[C@H]3C)cc2)nc(OC)n1 [Example 202] was run?
**A.** < 5 µM

**Q.** Which IC50 does the source give for C[C@@H]1CN(C(=O)c2ccccc2)CCN1C(=O)C(=O)c1ccc(-c2ncccn2)cc1 [Example 203] here?
**A.** < 5 µM

**Q.** Which IC50 does the source give for C[C@@H]1CN(C(=O)c2ccccc2)CCN1C(=O)C(=O)c1ccc(-c2ccsc2)cc1 [Example 204] here?
**A.** < 5 µM

**Q.** Which IC50 does the source give for C[C@@H]1CN(C(=O)c2ccccc2)CCN1C(=O)C(=O)c1ccc(-c2cccs2)cc1 [Example 205] here?
**A.** < 5 µM

**Q.** For C[C@@H]1CN(C(=O)c2ccccc2)CCN1C(=O)C(=O)c1ccc(-c2ccncc2)cc1 [Example 206], which IC50 is on record?
**A.** < 5 µM

**Q.** For Cc1ccc(-c2ccc(C(=O)C(=O)N3CCN(C(=O)c4ccccc4)C[C@H]3C)cc2)nc1 [Example 207], which IC50 is on record?
**A.** < 5 µM

**Q.** With Cc1ccnc(-c2ccc(C(=O)C(=O)N3CCN(C(=O)c4ccccc4)CC3C)cc2)n1 (stereo not shown) [Example 208] as the compound, how does the IC50 read?
**A.** < 5 µM

**Q.** With Cc1cc(-c2ccc(C(=O)C(=O)N3CCN(C(=O)c4ccccc4)C[C@H]3C)c(Cl)c2)on1 [Example 209] as the compound, how does the IC50 read?
**A.** < 5 µM

**Q.** With Cc1cc(-c2ccc(C(=O)C(=O)N3CCN(C(=O)c4ccccc4)C[C@H]3C)cc2F)on1 [Example 210] as the compound, how does the IC50 read?
**A.** < 5 µM

**Q.** C[C@@H]1CN(C(=O)c2ccccc2)CCN1C(=O)C(=O)c1ccc(N2CCCC2)cc1 [Example 211, 1-((R)-4-Benzoyl-2-methyl-piperazin-1-yl)-2-(4-pyrrolidin-1-yl-phenyl)-ethane-1,2-dione] was tested. Which IC50 did it give?
**A.** > 5 µM

**Q.** C[C@@H]1CN(C(=O)c2ccccc2)CCN1C(=O)C(=O)c1ccc(N2CCOC2=O)cc1 [Example 212, 1-((R)-4-Benzoyl-2-methyl-piperazin-1-yl)-2-[4-(2-oxo-oxazolidin-3-yl)-phenyl]-ethane-1,2-dione] was tested. Which IC50 did it give?
**A.** > 5 µM

**Q.** Which IC50 does the source give for Cc1cc(C(=O)C(=O)N2CCN(C(=O)c3ccccc3)C[C@H]2C)ccc1-n1cccn1 [Example 213, 1-((R)-4-Benzoyl-2-methyl-piperazin-1-yl)-2-(3-methyl-4-pyrazol-1-yl-phenyl)-ethane-1,2-dione] here?
**A.** > 5 µM

**Q.** With C[C@@H]1CN(C(=O)c2ccccc2)CCN1C(=O)C(=O)c1ccc(-n2cccn2)nc1 [Example 214, 1-((R)-4-Benzoyl-2-methyl-piperazin-1-yl)-2-(6-pyrazol-1-yl-pyridin-3-yl)-ethane-1,2-dione] as the compound, how does the IC50 read?
**A.** < 5 µM

**Q.** How did the IC50 turn out when C[C@@H]1CN(C(=O)c2ccccc2)CCN1C(=O)C(=O)c1ccc(-c2cc[nH]n2)cc1N(C)C [Example 216, 1-((R)-4-Benzoyl-2-methyl-piperazin-1-yl)-2-[2-dimethylamino-4-(1H-pyrazol-3-yl)-phenyl]-ethane-1,2-dione] was run?
**A.** > 5 µM

**Q.** C[C@@H]1CN(C(=O)c2ccccc2)CCN1C(=O)C(=O)c1ccc(-n2ccnc2)cc1 [Example 217] was tested. Which IC50 did it give?
**A.** < 5 µM

**Q.** Which IC50 does the source give for Cc1cc(-n2ccnc2)ccc1C(=O)C(=O)N1CCN(C(=O)c2ccccc2)C[C@H]1C [Example 218] here?
**A.** < 5 µM

**Q.** For C[C@@H]1CN(C(=O)c2ccccc2)CCN1C(=O)C(=O)c1ccc(-c2cc[nH]n2)cc1N [Example 219, 1-((R)-4-Benzoyl-2-methyl-piperazin-1-yl)-2-[2-amino-4-(1H-pyrazol-3-yl)-phenyl]-ethane-1,2-dione], which IC50 is on record?
**A.** < 5 µM
